The record followed here is patent publication US12648571B2, “Compositions including antimicrobial polymer-peptide conjugates and uses thereof” (University of Puerto Rico, priority 2020, dated 2026).

No end group written: not given here.

The nature of series [1]: Dynamic Light Scattering (DLS) of peptides in solution. The class given is physicochemical. To be noted: 1.0 mg/mL in DMSO/np water 20% v/v; for Polydispersity Index (PDI): individual peak method. The procedure:
To determine the stability of the peptide in solution, DLS was conducted for both peptides (MH5C and MH5C-Cys).
AMPs were dissolved in DMSO and nanopure water (DMSO/np water mixture; 20% v/v) with the final concentration at 1.0 mg/mL. First the samples were ultra-centrifuged (29,100 rpm, 1 hour at 20° C.) and later the size average of these biomolecules was studied in solution using a Malvern Zetasizer Nano instrument (4 mW 632.8 nm laser). The individual peak method was used to determine the Polydispersity Index (PdI).

Series [2] can be described thus: Zeta potential of peptides. Format: physicochemical. The following applies: sample pH 4.5 (MH5C), 5.9 (MH5C-Cys). The procedure:
Likewise, zeta potential was conducted in order to determine the overall charge of the modified and unmodified peptide. The zeta potential is highly dependent on the pH as it directly affects the overall charge of the colloidal species. Therefore, it was of interest to know the isoelectric point of the peptides. Using ExPASy ProtParam tool (https://web.expasy.org/protparam/), the theoretical isoelectric points of MH5C and MH5C-Cys, were determined at 3.42 in both cases. In this study the pH of each sample, MH5C was 4.5 and 5.9 for the MH5C-Cys. This is an important condition for the stability of the formulation, as no precipitation will occur under the conditions of the experiment.^36 MH5C had positive zeta potential values (46.6±0.9) compared to the MH5C-Cys (−94±4).

Series [3] can be described thus: Circular Dichroism (CD) spectroscopy, secondary structure (K2D3). The class given is physicochemical. The following applies: 90 μM, TFE/np water 50% v/v, 20° C. How it is done:
Circular Dichroism spectra were recorded on a Jasco J-1500 CD Spectrometer (Jasco, Inc., Easton, MD). Both peptides (MH5C, MH5C-Cys) were dissolved according to the protocol published by Dennison et al. (2015) with 2,2,2-Trifluoroethanol and np water (TFE/np water mixture; 50% v/v) as co-solvent for this peptide.^26 The final concentration was set to 90 μM and the samples were ultra-centrifuged (29,100 rpm) for 1 hour at 20° C. Subsequently, 400 μL of the supernatant of each peptide was added to a rectangular quartz cell with 1 mm path length to evaluate secondary structures. The wavelength ranged from 250-190 nm and scanning speed was 50 nm/min at 20° C. The data obtained were triplicated and then averaged for each sample. In addition, the thermodynamics and unfolding of peptides was studied with this equipment. This technique was used to observe the secondary structure at wavelength complete spectra as a function of temperature.^27 The temperature range from 20° C. to 90° C. was used.
For the secondary structure estimation, the K2D3 method was utilized as described elsewhere.^40 After obtaining the data, a predictive method that utilizes the information from the database Protein Data Bank (PDB) was employed. With this information, a theoretical prediction of CD, known as DichroCalc was obtained.^41 Then, the method K2D3 was utilized, which can predict secondary structures of peptides and proteins in recorded wavelengths between 200 nm to 240 nm in a non-redundant form. The results of these calculations are the predicted percentages for alpha-helix and beta-strand content.^40 The following equation was employed for this prediction:^42

Series [4] has as its system P. aeruginosa (ATCC 27853). The class given is cell-based, Pseudomonas aeruginosa. The following applies: for Minimum Inhibition Concentration (MIC): 24 hours, 1.0×10^8 CFU/mL; for kind of antibacterial effect (growth curves): peptides: after 12 hours of growth; for bacterial growth (growth curves): up to 24 hours, 37° C. From the text:
(§1) To determine the antimicrobial activity of the peptides against the pathogenic bacteria P. aeruginosa (ATCC 27853)22 and E. coli (ATCC 25922)23, the following materials were used: Costar 96-well plates Flat Bottom (Sterile Low Evaporation Lid, Corning, USA.), Calgary Biofilm Device (Innovotech Inc.), Glycerol 100% purity. The nutrient agar and broth used were BBL TSA II Trypticase Soy Agar (TSA) and BBL Trypticase Soy Broth (TSB) and were purchased from Becton, Dickinson and Company (BD).
(§2) For these assays, bacteria of interest were thawed, and serial cultured to reach optimal metabolic activity after being defrosted. Optical Density (O.D.) measured with a Genesys 10S UV-VIS Spectrophotometer (O.D.600 nm) was utilized as a measure of bacterial concentration, 1.0×10^8 CFU/mL, as standardized and approved by the Clinical and Laboratory Standards Institute (CLSI).^28 The final concentration of the solvent (vehicle control) was DMSO 10%.
(§3) To create growth curves of the bacteria with and without peptides and to determine the lowest concentration in which these antimicrobial peptides present inhibition of bacterial growth, Minimum Inhibition Concentration (MIC) testing was carried out. After thawing and incubating at 37° C. for 24 hours, and after achieving target O.D., the bacteria were placed on the 96-well plate with lid together with the peptides in various concentrations. Finally, the 96-well plate was taken to the Synergy H1TM Hybrid Multi-Mode Microplate Reader to observe and study the antibacterial effect of the peptides at 37° C. during different time points (0.5 h, 5 h, 12 h, 18 h and 24 h). This process that was used in the same in the evaluation of growth using the MH5C-Cys.

In a further series the test system is E. coli (ATCC 25922). Format: cell-based, Escherichia coli. To be noted: for Minimum Inhibition Concentration (MIC): 24 hours, 1.0×10^8 CFU/mL; for kind of antibacterial effect (growth curves): peptides: after 12 hours of growth; for bacterial growth (growth curves): up to 24 hours, 37° C.
From the text: as §1, §2, §3

Series [5] relates to P. aeruginosa biofilm. Briefly: MBIC assay (Calgary Biofilm Device). The class given is cell-based, Pseudomonas aeruginosa. To be noted: 90 μM and 300 μM. The procedure: (§4) MBIC (Minimum Biofilm Inhibitory Concentration) was determined by the adherence assay using the Calgary Biofilm Device (Innovotech Inc.). In this assay, the bacteria and compounds (MH5C-Cys and both PEG conjugates) were placed together in the assay plate for 72 h to allow growth. Afterwards, CFU (Colony Forming Unit) and optical density measurements for each well were recorded at 650 nm and clear wells and growth inhibition curves were taken as evidence of biofilm inhibition.

For series [6], the system named is E. coli biofilm. Briefly: MBIC assay (Calgary Biofilm Device). The class given is cell-based, Escherichia coli. To be noted: 90 μM and 300 μM. The procedure: as §4
Series [7] concerns P. aeruginosa biofilm. The class given is cell-based, Pseudomonas aeruginosa. The following applies: for Minimum Biofilm Eradication Concentration (MBEC): 24 h challenge. How it is done: (§5) The assay was conducted according to the MBEC protocol as supplied by the manufacturer. Inoculum of each bacterium was prepared in TSB (Tryptic Soy Broth) to a final density of 1.0×10^6. In each well of the 96 well plate, 150 of the inoculated media was transferred. Assay plates were placed in an incubator for 72 h to allow growth and comparison of biofilms was performed for each bacteria strain. After 72 h, the PEG lid of the MBEC assay was transferred to a ‘challenge’ plate. Essentially, serial dilutions of each conjugated (4 kDa and 7 kDa), antimicrobial peptide, and PEG polymers were prepared in TSB to a final volume in the well plates of 200 μL (control and conjugates at 90 μM, 300 μM, and 500 μM). After exposure of the biofilm to the antimicrobial challenge for 24 h, the PEG lid was removed from the challenge plate, and the optical density measurements for each plate were recorded at 650 nm. Clear wells were taken as evidence of biofilm eradication, and MBEC values were assigned as the lowest concentration at which no growth was observed after 24 h of incubation.^31-32

Series [8] deals with E. coli biofilm. Format: cell-based, Escherichia coli. The following applies: for Minimum Biofilm Eradication Concentration (MBEC): 24 h challenge. How it is done: as §5

Regarding ILGPVLGLVSDTLDDVLGILC-OH [MH5C-Cys], in series [1], the “average apparent hydrodynamic diameter” value worked out at 0.52 ± 0.44 nm·days and the “Polydispersity Index (PDI)” value came out at 0.01. This substance gave a zeta potential in series [2] of −94±4. In addition, in series [3], the α helix structure is recorded as 95.36% and the β strand structure worked out at 0.02%. For the same substance, in series [4], the “Minimum Inhibition Concentration (MIC)” value came to 90 µM, the “kind of antibacterial effect (growth curves)” value (shortened to “kind of antibacterial effect”) is listed as “bacteriostatic effect” and the “bacterial growth (growth curves)” value is reported as “did not allow bacterial growth”. Moreover, in the series on E. coli (ATCC 25922), the “Minimum Inhibition Concentration (MIC)” value worked out at 90 µM, the “kind of antibacterial effect” value is “bacteriostatic effect” and the “bacterial growth (growth curves)” value is given as “did not allow bacterial growth”. Further, the “inhibition of biofilm formation (MBIC assay, CFU)” value in the series with P. aeruginosa biofilm [5] was “does not possess a significant inhibition”. The “inhibition of biofilm formation (MBIC assay, CFU)” value with E. coli biofilm [6] is recorded as “does not possess a significant inhibition”. In the series with P. aeruginosa biofilm [7], the “time during which bacterial growth was not allowed (MBEC assay)” value was 8 to 10 h and the “Minimum Biofilm Eradication Concentration (MBEC)” value came out at 500 µM. In addition, in the series on E. coli biofilm [8], the “time during which bacterial growth was not allowed (MBEC assay)” value lay in the range of 8 to 10 h and the “Minimum Biofilm Eradication Concentration (MBEC)” value was 500 µM.
Consider KRWRIRVRVIRKC [Tet-20, KRWRIRVRVIRKC], for which the “Minimum Inhibition Concentration (MIC)” value in series [4] turned out to be 40 µM; in the series on E. coli (ATCC 25922) it was 15 µM. Also, the “kind of effect in MBEC assay” value is reported as “bactericidal effect” in the series on P. aeruginosa biofilm [7] (90 μM, 180 μM and 300 μM, 24 h); “bactericidal effect” in the series on E. coli biofilm [8] (90 μM and 300 μM, 24 h). For the same substance, the “Minimum Biofilm Eradication Concentration (MBEC)” value with P. aeruginosa biofilm [7] and with E. coli biofilm [8] was 300 µM in each case.
As for ILGPVLGLVSDTLDDVLGIL-OH [MH5C], in series [1], the “average apparent hydrodynamic diameter” value amounted to 0.72 ± 0.11 nm·days and the “Polydispersity Index (PDI)” value worked out at 0.03. The substance also returned a zeta potential in [2] of 46.6±0.9. In series [3], this substance had a α helix structure of 95.22% and a β strand structure of 0.02%. In series [4], the “Minimum Inhibition Concentration (MIC)” value is 90 µM, the “kind of antibacterial effect” value is recorded as “bacteriostatic effect” and the “bacterial growth (growth curves)” value is recorded as “did not allow bacterial growth”. In the series on E. coli (ATCC 25922), the “Minimum Inhibition Concentration (MIC)” value was 90 µM, the “kind of antibacterial effect” value is listed as “bacteriostatic effect” and the “bacterial growth (growth curves)” value is listed as “did not allow bacterial growth”.
